The values that follow come from ChEMBL document CHEMBL4002605, “Synthesis, identification and in vitro biological evaluation of some novel quinoline incorporated 1,3-thiazinan-4-one derivatives” (Bioorg Med Chem Lett, 2017).

Values after ≈ are worked out from the molar mass of the structure shown.

Assay [1] relates to Streptococcus pneumoniae. The assay is described as follows: Antibacterial activity against Streptococcus pneumoniae MTCC 1936 by broth microdilution assay method. The format is functional.
The test system of assay [2] is Bacillus subtilis. The assay is described as follows: Antibacterial activity against Bacillus subtilis MTCC 441 by broth microdilution assay method. The format is functional.
The test system of assay [3] is Clostridium tetani. Nature of the assay: Antibacterial activity against Clostridium tetani MTCC 449 by broth microdilution assay method. The format is functional.
Assay [4] has as its system Escherichia coli. Nature of the assay: Antibacterial activity against Escherichia coli MTCC 443 by broth microdilution assay method. It is filed as functional.
Assay [5] deals with Salmonella typhi. The assay is described as follows: Antibacterial activity against Salmonella typhi MTCC 98 by broth microdilution assay method. It is filed as functional, Salmonella enterica subsp. enterica serovar Typhi. The following applies: Salmonella enterica.
In assay [6] the test system is Vibrio cholerae. The assay is described as follows: Antibacterial activity against Vibrio cholerae MTCC 3906 by broth microdilution assay method. It is filed as functional.
In assay [7] the test system is Mycobacterium tuberculosis. Nature of the assay: Antitubercular activity against Mycobacterium tuberculosis H37Rv at 6 ug/mL. It is filed as functional.
For assay [8], the system named is Plasmodium falciparum. Nature of the assay: Antimalarial activity against Plasmodium falciparum. It is filed as functional.

As for `O=C1CCSC(c2ccc(Br)cc2)N1CCCNc1ccnc2cc(Cl)ccc12` (centres undefined), the MIC in assay [1] is 62.5 µg/mL (≈ 127 µM); in assay [2], 62.5 µg/mL (≈ 127 µM); in assay [3], 100 µg/mL (≈ 204 µM); in assay [4] it was 125 µg/mL (≈ 255 µM); in assay [5], 62.5 µg/mL (≈ 127 µM); in assay [6], 100 µg/mL (≈ 204 µM). This molecule also gave an inhibition at 6 µg/mL in assay [7] of 87%. Further, it took 0.056 µg/mL (≈ 0.114 µM) to reach half-maximal inhibition in assay [8] (IC50).

With `O=C1CCSC(c2cccc(Cl)c2)N1CCNc1ccnc2cc(Cl)ccc12` (centres undefined), the MIC came out at 125 µg/mL (≈ 289 µM) in assay [1]; 250 µg/mL (≈ 578 µM) in assay [2]; 250 µg/mL (≈ 578 µM) in assay [3]; 125 µg/mL (≈ 289 µM) in assay [4]; 250 µg/mL (≈ 578 µM) in assay [5]; 250 µg/mL (≈ 578 µM) in assay [6]. The molecule further showed an inhibition at 6 µg/mL in assay [7] of 60%. In assay [8], this molecule gave an IC50 of 1.57 µg/mL (≈ 3.63 µM).

For the molecule `O=C1CCSC(c2cccc(Cl)c2)N1CCCNc1ccnc2cc(Cl)ccc12` (centres undefined), the MIC in assay [1] was 250 µg/mL (≈ 560 µM); in assay [2] it was 125 µg/mL (≈ 280 µM); in assay [3] it was 250 µg/mL (≈ 560 µM); in assay [4], 250 µg/mL (≈ 560 µM); in assay [5], 250 µg/mL (≈ 560 µM); in assay [6], 250 µg/mL (≈ 560 µM). Besides, in assay [7], 6 µg/mL produced 55% inhibition. The same molecule displayed an IC50 in assay [8] of 1.62 µg/mL (≈ 3.63 µM).

Regarding `Cc1ccc(C2SCCC(=O)N2NC(=O)c2cnc3c(C(F)(F)F)cccc3c2O)cc1` (centres undefined), the MIC was determined as 500 µg/mL (≈ 1080 µM) in assay [1]; 250 µg/mL (≈ 542 µM) in assay [2]; 250 µg/mL (≈ 542 µM) in assay [3]; 500 µg/mL (≈ 1080 µM) in assay [4]; 250 µg/mL (≈ 542 µM) in assay [5]; 500 µg/mL (≈ 1080 µM) in assay [6]. The molecule also had an inhibition at 6 µg/mL in assay [7] of 60%. The midpoint of inhibition in assay [8], the IC50, lay at 1.56 µg/mL (≈ 3.38 µM).

Consider `O=C1CCSC(c2ccc(O)cc2)N1CCCCNc1ccnc2cc(Cl)ccc12` (centres undefined), for which the MIC in assay [1] was determined as 250 µg/mL (≈ 566 µM); in assay [2], 250 µg/mL (≈ 566 µM); in assay [3] it was 500 µg/mL (≈ 1130 µM); in assay [4], 125 µg/mL (≈ 283 µM); in assay [5] it was 250 µg/mL (≈ 566 µM); in assay [6], 250 µg/mL (≈ 566 µM). This molecule also showed an inhibition at 6 µg/mL in assay [7] of 38%. The molecule further showed an IC50 in assay [8] of 2.64 µg/mL (≈ 5.97 µM).

On to `COc1cccc(C2SCCC(=O)N2CCNc2ccnc3cc(Cl)ccc23)c1` (centres undefined), for which the MIC was 250 µg/mL (≈ 584 µM) in assay [1]; 62.5 µg/mL (≈ 146 µM) in assay [2]; 250 µg/mL (≈ 584 µM) in assay [3]; 250 µg/mL (≈ 584 µM) in assay [4]; 500 µg/mL (≈ 1170 µM) in assay [5]; 500 µg/mL (≈ 1170 µM) in assay [6]. Further, in assay [7], 6 µg/mL produced 58% inhibition. This molecule also yielded an IC50 in assay [8] of 1.89 µg/mL (≈ 4.42 µM).

For `COc1cccc(C2SCCC(=O)N2NC(=O)c2cnc3c(C(F)(F)F)cccc3c2O)c1` (centres undefined), the MIC in assay [1] came out at 500 µg/mL (≈ 1050 µM); in assay [2], 250 µg/mL (≈ 524 µM); in assay [3], 500 µg/mL (≈ 1050 µM); in assay [4], 250 µg/mL (≈ 524 µM); in assay [5], 250 µg/mL (≈ 524 µM); in assay [6], 250 µg/mL (≈ 524 µM). The molecule also gave an inhibition at 6 µg/mL in assay [7] of 65%. Besides, 1.7 µg/mL (≈ 3.56 µM) corresponded to half-maximal inhibition in assay [8] (IC50).

On to `O=C1CCSC(c2ccccc2)N1CCNc1ccnc2cc(Cl)ccc12` (centres undefined), for which the MIC stood at 500 µg/mL (≈ 1260 µM) in assay [1]; 250 µg/mL (≈ 628 µM) in assay [2]; 250 µg/mL (≈ 628 µM) in assay [3]; 500 µg/mL (≈ 1260 µM) in assay [4]; 500 µg/mL (≈ 1260 µM) in assay [5]; 250 µg/mL (≈ 628 µM) in assay [6]. In addition, the inhibition at 6 µg/mL in assay [7] stood at 50%. In assay [8], this molecule gave an IC50 of 2.7 µg/mL (≈ 6.79 µM).

Take `O=C(NN1C(=O)CCSC1c1ccc(Br)cc1)c1cnc2c(C(F)(F)F)cccc2c1O` (centres undefined): the minimum inhibitory concentration (MIC) in assay [1] worked out at 125 µg/mL (≈ 237 µM); in assay [2], 62.5 µg/mL (≈ 119 µM); in assay [3], 31.2 µg/mL (≈ 59.4 µM); in assay [4] it was 125 µg/mL (≈ 237 µM); in assay [5], 31.2 µg/mL (≈ 59.4 µM); in assay [6], 62.5 µg/mL (≈ 119 µM). Moreover, the inhibition at 6 µg/mL in assay [7] was found to be 98%. This molecule returned an IC50 in assay [8] of 0.018 µg/mL (≈ 0.0342 µM).

As for `O=C(NN1C(=O)CCSC1c1cccc(Cl)c1)c1cnc2c(C(F)(F)F)cccc2c1O` (centres undefined), the MIC in assay [1] was found to be 250 µg/mL (≈ 519 µM); in assay [2], 125 µg/mL (≈ 259 µM); in assay [3] it was 250 µg/mL (≈ 519 µM); in assay [4], 125 µg/mL (≈ 259 µM); in assay [5], 250 µg/mL (≈ 519 µM); in assay [6], 250 µg/mL (≈ 519 µM). For the same molecule, the inhibition at 6 µg/mL in assay [7] worked out at 71%. For the same molecule, the IC50 in assay [8] came out at 1.2 µg/mL (≈ 2.49 µM).

Take `COc1cccc(C2SCCC(=O)N2CCCNc2ccnc3cc(Cl)ccc23)c1` (centres undefined): the MIC in assay [1] stood at 250 µg/mL (≈ 566 µM); in assay [2], 250 µg/mL (≈ 566 µM); in assay [3], 500 µg/mL (≈ 1130 µM); in assay [4], 250 µg/mL (≈ 566 µM); in assay [5], 250 µg/mL (≈ 566 µM); in assay [6], 500 µg/mL (≈ 1130 µM). Further, testing at 6 µg/mL in assay [7] gave an inhibition of 51%. Further, 1.87 µg/mL (≈ 4.23 µM) corresponded to half-maximal inhibition in assay [8] (IC50).

On to `O=C1CCSC(c2ccc(Cl)cc2)N1CCCCNc1ccnc2cc(Cl)ccc12` (centres undefined), for which the MIC in assay [1] came to 250 µg/mL (≈ 543 µM); in assay [2], 250 µg/mL (≈ 543 µM); in assay [3] it was 125 µg/mL (≈ 271 µM); in assay [4] it was 250 µg/mL (≈ 543 µM); in assay [5], 125 µg/mL (≈ 271 µM); in assay [6], 62.5 µg/mL (≈ 136 µM). The same molecule came in with an inhibition at 6 µg/mL in assay [7] of 60%. In addition, the IC50 in assay [8] came out at 0.14 µg/mL (≈ 0.304 µM).

Regarding `O=C1CCSC(c2ccc(Cl)cc2)N1CCCNc1ccnc2cc(Cl)ccc12` (centres undefined), the MIC in assay [1] was 62.5 µg/mL (≈ 140 µM); in assay [2], 125 µg/mL (≈ 280 µM); in assay [3], 250 µg/mL (≈ 560 µM); in assay [4] it was 125 µg/mL (≈ 280 µM); in assay [5], 250 µg/mL (≈ 560 µM); in assay [6] it was 250 µg/mL (≈ 560 µM). Testing at 6 µg/mL in assay [7] gave an inhibition of 67%. In assay [8], this molecule displayed an IC50 of 0.12 µg/mL (≈ 0.269 µM).

As for `O=C1CCSC(c2cccc(F)c2)N1CCCNc1ccnc2cc(Cl)ccc12` (centres undefined), the MIC stood at 125 µg/mL (≈ 291 µM) in assay [1]; 125 µg/mL (≈ 291 µM) in assay [2]; 250 µg/mL (≈ 581 µM) in assay [3]; 250 µg/mL (≈ 581 µM) in assay [4]; 125 µg/mL (≈ 291 µM) in assay [5]; 250 µg/mL (≈ 581 µM) in assay [6]. Also, in assay [7], the inhibition at 6 µg/mL was found to be 52%. Inhibition in assay [8] was half-maximal at 1.12 µg/mL (≈ 2.6 µM) (IC50).

Consider `O=C1CCSC(c2ccc(Cl)cc2)N1CCNc1ccnc2cc(Cl)ccc12` (centres undefined), for which the MIC in assay [1] stood at 125 µg/mL (≈ 289 µM); in assay [2], 62.5 µg/mL (≈ 145 µM); in assay [3], 62.5 µg/mL (≈ 145 µM); in assay [4] it was 125 µg/mL (≈ 289 µM); in assay [5] it was 250 µg/mL (≈ 578 µM); in assay [6], 125 µg/mL (≈ 289 µM). Testing at 6 µg/mL in assay [7] gave an inhibition of 73%. Besides, half-maximal inhibition in assay [8] (IC50) required 0.098 µg/mL (≈ 0.227 µM).

Turning to `O=C(NN1C(=O)CCSC1c1ccc(F)cc1)c1cnc2c(C(F)(F)F)cccc2c1O` (centres undefined), the MIC in assay [1] is 125 µg/mL (≈ 269 µM); in assay [2] it was 31.2 µg/mL (≈ 67.1 µM); in assay [3], 15.6 µg/mL (≈ 33.5 µM); in assay [4], 125 µg/mL (≈ 269 µM); in assay [5] it was 250 µg/mL (≈ 537 µM); in assay [6], 125 µg/mL (≈ 269 µM). The molecule further registered an inhibition at 6 µg/mL in assay [7] of 92%. This molecule also came in with an IC50 in assay [8] of 0.052 µg/mL (≈ 0.112 µM).

For `O=C1CCSC(c2cccc(F)c2)N1CCCCNc1ccnc2cc(Cl)ccc12` (centres undefined), the MIC amounted to 250 µg/mL (≈ 563 µM) in assay [1]; 250 µg/mL (≈ 563 µM) in assay [2]; 125 µg/mL (≈ 282 µM) in assay [3]; 125 µg/mL (≈ 282 µM) in assay [4]; 100 µg/mL (≈ 225 µM) in assay [5]; 125 µg/mL (≈ 282 µM) in assay [6]. In assay [7], this molecule had an inhibition at 6 µg/mL of 55%. In assay [8], this molecule had an IC50 of 1.31 µg/mL (≈ 2.95 µM).

In the case of `O=C1CCSC(c2ccc(F)cc2)N1CCCNc1ccnc2cc(Cl)ccc12` (centres undefined), the MIC in assay [1] was found to be 31.2 µg/mL (≈ 72.7 µM); in assay [2], 62.5 µg/mL (≈ 145 µM); in assay [3] it was 100 µg/mL (≈ 233 µM); in assay [4] it was 62.5 µg/mL (≈ 145 µM); in assay [5] it was 125 µg/mL (≈ 291 µM); in assay [6] it was 100 µg/mL (≈ 233 µM). This molecule also came in with an inhibition at 6 µg/mL in assay [7] of 78%. Further, the IC50 in assay [8] was 0.089 µg/mL (≈ 0.207 µM).
